29 compounds from US20260265265A1, “NOVEL BENZIMIDAZOLONE DERIVATIVE COMPOUND AS AUTOTAXIN INHIBITOR” (LG CHEM, LTD., priority 2023, published 2026) can be followed below.

pIC50: −log10 of the molar value.

The assay has as its target T1, Recombinant Human ENPP-2/Autotaxin (Homo sapiens, UniProt Q13822).
T1 construct: purchased R&D systems 5255-EN
The assay is described as follows: LysoPLD activity measurement (autotaxin enzyme inhibition, choline release, TOOS reagent). To be noted: LysoPLD inhibitory activity; substrate 14:0 LysoPC; absorbance at 555 nm. It counts as biochemical. As to the method:
Such a measurement method is a method of measuring the amount of choline, which is a reaction product in an autotaxin enzyme reaction, using a TOOS reagent. Depending on the activity of the autotaxin inhibitor, the amount of choline produced as a reaction product varies, which affects the final absorbance.
After 30 min, 14:0 LysoPC of the substrate diluted to a concentration of 300 μM with the enzyme reaction buffer solution was dispensed into each well by 50 μL and allowed to stand at 37° C. for 90 minutes. At this time, negative control wells were dispensed with 1% DMSO, substrate, and autotaxin instead of the compound, and positive control wells were dispensed with 1% DMSO and substrate.
A word on the pIC50: it is −log10 of the IC50, conventionally taken in molar units. As to `O=C(O)c1cccc(Cn2c(=O)n(-c3ccc(C(=O)N4CCCCC4)cc3)c3cc(Cl)ccc32)c1F` [Example 57, 3-((5-chloro-2-oxo-3-(4-(piperidine-1-carbonyl)phenyl)-2,3-dihydro-1H-benzo[d]imidazol-1-yl)methyl)-2-fluorobenzoic acid], the negative-log IC50 (pIC50) was above 8.00.

For `COC1CCN(C(=O)c2ccc(-n3c(=O)n(Cc4cccc(C(=O)O)c4)c4ccc(Cl)cc43)cc2)C1` (centres unmarked) [Example 59, 3-((5-chloro-3-(4-(3-methoxypyrrolidine-1-carbonyl)phenyl)-2-oxo-2,3-dihydro-1H-benzo[d]imidazol-1-yl)methyl)benzoic acid], the negative-log IC50 (pIC50) was 7.00 to 8.00.

Take `CN1CCN(C(=O)c2ccc(-n3c(=O)n(Cc4cccc(C(=O)O)c4)c4ccc(Cl)cc43)cc2)CC1` [Example 60, 3-((5-chloro-3-(4-(4-methylpiperazine-1-carbonyl)phenyl)-2-oxo-2,3-dihydro-1H-benzo[d]imidazol-1-yl)methyl)benzoic acid]: the negative logarithm of the IC50 (pIC50) is above 8.00.

On to `O=C(O)c1cccc(Cn2c(=O)n(-c3ccc(C(=O)N4CCC(O)CC4)cc3)c3cc(Cl)ccc32)c1` [Example 61, 3-((5-chloro-3-(4-(4-hydroxypiperidin-1-carbonyl)phenyl)-2-oxo-2,3-dihydro-1H-benzo[d]imidazol-1-yl)methyl)benzoic acid], for which the pIC50 is above 8.00.

For the compound `COC1CCN(C(=O)c2ccc(-n3c(=O)n(Cc4cccc(C(=O)O)c4)c4ccc(Cl)cc43)cc2)CC1` [Example 62, 3-((5-chloro-3-(4-(4-methoxypiperidine-1-carbonyl)phenyl)-2-oxo-2,3-dihydro-1H-benzo[d]imidazol-1-yl)methyl)benzoic acid], the negative logarithm of the IC50 (pIC50) was above 8.00.

Turning to `O=C(O)c1cccc(C2(n3c(=O)n(-c4ccc(C(=O)N5CCCC5)cc4)c4cc(Cl)ccc43)CC2)c1` [Example 63, 3-(1-(5-chloro-2-oxo-3-(4-(pyrrolidine-1-carbonyl)phenyl)-2,3-dihydro-1H-benzo[d]imidazol-1-yl)cyclopropyl)benzoic acid], the negative-log IC50 (pIC50) is above 8.00.

For `O=C(O)c1cccc(C2(n3c(=O)n(-c4ccc(C(=O)N5CCCCC5)cc4)c4cc(Cl)ccc43)CC2)c1` [Example 64, 3-(1-(5-chloro-2-oxo-3-(4-(piperidin-1-carbonyl)phenyl)-2,3-dihydro-1H-benzo[d]imidazol-1-yl)cyclopropyl)benzoic acid], the pIC50 was above 8.00.

In the case of `CN(C)c1ccc(-n2c(=O)n(Cc3cc(F)cc(C(=O)O)c3)c3c(F)cc(Cl)cc32)cc1` [Example 65, 3-((5-chloro-3-(4-(dimethylamino)phenyl)-7-fluoro-2-oxo-2,3-dihydro-1H-benzo[d]imidazol-1-yl)methyl)-5-fluorobenzoic acid], the negative-log IC50 (pIC50) is 7.00 to 8.00.

As for `CN(C)c1ccc(-n2c(=O)n(Cc3cccc(C(=O)O)c3)c3c(F)cc(Cl)cc32)cc1` [Example 66, 3-((5-chloro-3-(4-(dimethylamino)phenyl)-7-fluoro-2-oxo-2,3-dihydro-1H-benzo[d]imidazol-1-yl)methyl)benzoic acid], the negative logarithm of the IC50 (pIC50) is 7.00 to 8.00.

As for `O=C(O)c1cccc(C2(n3c(=O)n(-c4ccc(C(=O)N5CCCC5)cc4)c4cc(Cl)ccc43)CC2)c1F` [Example 67, 3-(1-(5-chloro-2-oxo-3-(4-(pyrrolidine-1-carbonyl)phenyl)-2,3-dihydro-1H-benzo[d]imidazol-1-yl)cyclopropyl)-2-fluorobenzoic acid], the pIC50 is above 8.00.

Take `O=C(O)c1cccc(C2(n3c(=O)n(-c4ccc(C(=O)N5CCCCC5)cc4)c4cc(Cl)ccc43)CC2)c1F` [Example 68, 3-(1-(5-chloro-2-oxo-3-(4-(piperidine-1-carbonyl)phenyl)-2,3-dihydro-1H-benzo[d]imidazol-1-yl)cyclopropyl)-2-fluorobenzoic acid]: the pIC50 is above 8.00.

Regarding `CN(C)c1ccc(-n2c(=O)n(C3(c4cccc(C(=O)O)c4)CC3)c3ccc(Cl)cc32)cc1` [Example 69, 3-(1-(5-chloro-3-(4-(dimethylamino)phenyl)-2-oxo-2,3-dihydro-1H-benzo[d]imidazol-1-yl)cyclopropyl)benzoic acid], the negative logarithm of the IC50 (pIC50) is above 8.00.

As for `CN(C)c1ccc(-n2c(=O)n(C3(c4cccc(C(=O)O)c4F)CC3)c3ccc(Cl)cc32)cc1` [Example 70, 3-(1-(5-chloro-3-(4-(dimethylamino)phenyl)-2-oxo-2,3-dihydro-JH-benzo[d]imidazol-1-yl)cyclopropyl)-2-fluorobenzoic acid], the pIC50 is above 8.00.

Turning to `CN(C)C(=O)c1ccc(-n2c(=O)n(C3(c4cccc(C(=O)O)c4)CC3)c3ccc(Cl)cc32)cc1` [Example 71, 3-(1-(5-chloro-3-(4-(dimethylcarbamoyl)phenyl)-2-oxo-2,3-dihydro-1H-benzo[d]imidazol-1-yl)cyclopropyl)benzoic acid], the pIC50 was above 8.00.

In the case of `CN(C)C(=O)c1ccc(-n2c(=O)n(C3(c4cccc(C(=O)O)c4F)CC3)c3ccc(Cl)cc32)cc1` [Example 72, 3-(1-(5-chloro-3-(4-(dimethylcarbamoyl)phenyl)-2-oxo-2,3-dihydro-1H-benzo[d]imidazol-1-yl)cyclopropyl)-2-fluorobenzoic acid], the negative-log IC50 (pIC50) is above 8.00.

With `CCOc1ccc(-n2c(=O)n(Cc3cccc(C(=O)O)c3)c3ccc(Cl)cc32)cn1` [Example 75, 3-((5-chloro-3-(6-ethoxypyridin-3-yl)-2-oxo-2,3-dihydro-1H-benzo[d]imidazol-1-yl)methyl)benzoic acid], the pIC50 is 6.00 to 7.00.

Take `CCCOc1ccc(-n2c(=O)n(Cc3cccc(C(=O)O)c3)c3ccc(Cl)cc32)cn1` [Example 76, 3-((5-chloro-2-oxo-3-(6-propoxypyridin-3-yl)-2,3-dihydro-1H-benzo[d]imidazol-1-yl)methyl)benzoic acid]: the negative logarithm of the IC50 (pIC50) is 6.00 to 7.00.

As to `O=C(O)c1cccc(Cn2c(=O)n(-c3ccc(N4CC(O)C4)nc3)c3cc(Cl)ccc32)c1` [Example 77, 3-((5-chloro-3-(6-(3-hydroxyazetidin-1-yl)pyridin-3-yl)-2-oxo-2,3-dihydro-1H-benzo[d]imidazol-1-yl)methyl)benzoic acid], the negative-log IC50 (pIC50) is 6.00 to 7.00.

As for `O=C(O)c1cccc(Cn2c(=O)n(-c3ccc(N4CCOCC4)nc3)c3cc(Cl)ccc32)c1` [Example 78, 3-((5-chloro-3-(6-morpholinopyridin-3-yl)-2-oxo-2,3-dihydro-1H-benzo[d]imidazol-1-yl)methyl)benzoic acid], the negative logarithm of the IC50 (pIC50) is 7.00 to 8.00.

In the case of `CN(C)c1ccc(-n2c(=O)n(Cc3cccc(C(=O)O)c3)c3ccc(Cl)cc32)cn1` [Example 79, 3-((5-chloro-3-(6-(dimethylamino)pyridin-3-yl)-2-oxo-2,3-dihydro-1H-benzo[d]imidazol-1-yl)methyl)benzoic acid], the negative-log IC50 (pIC50) is 7.00 to 8.00.

Regarding `O=C(O)c1cccc(Cn2c(=O)n(-c3ccc(N4CCC(F)(F)C4)nc3)c3cc(Cl)ccc32)c1` [Example 80, 3-((5-chloro-3-(6-(3,3-difluoropyrrolidin-1-yl)pyridin-3-yl)-2-oxo-2,3-dihydro-1H-benzo[d]imidazol-1-yl)methyl)benzoic acid], the pIC50 is 6.00 to 7.00.

As for `CN1CCN(c2ccc(-n3c(=O)n(Cc4cccc(C(=O)O)c4)c4ccc(Cl)cc43)cn2)CC1` [Example 81, 3-((5-chloro-3-(6-(4-methylpiperazin-1-yl)pyridin-3-yl)-2-oxo-2,3-dihydro-1H-benzo[d]imidazol-1-yl)methyl)benzoic acid], the negative-log IC50 (pIC50) was 6.00 to 7.00.

`O=C(O)c1cccc(Cn2c(=O)n(-c3ccc(N4CCC(F)(F)CC4)nc3)c3cc(Cl)ccc32)c1` [Example 82, 3-((5-chloro-3-(6-(4,4-difluoropiperidin-1-yl)pyridin-3-yl)-2-oxo-2,3-dihydro-1H-benzo[d]imidazol-1-yl)methyl)benzoic acid]: the negative logarithm of the IC50 (pIC50) was 7.00 to 8.00.

As for `O=C(O)c1cccc(Cn2c(=O)n(-c3cnc(N4CCOCC4)nc3)c3cc(Cl)ccc32)c1` [Example 83, 3-((5-chloro-3-(2-morpholinopyrimidin-5-yl)-2-oxo-2,3-dihydro-1H-benzo[d]imidazol-1-yl)methyl)benzoic acid], the pIC50 is 6.00 to 7.00.

For `CCCn1cc(-n2c(=O)n(Cc3cccc(C(=O)O)c3)c3ccc(Cl)cc32)cn1` [Example 84, 3-((5-chloro-2-oxo-3-(1-propyl-1H-pyrazol-4-yl)-2,3-dihydro-1H-benzo[d]imidazol-1-yl)methyl)benzoic acid], the pIC50 was 6.00 to 7.00.

As to `O=C(O)c1cccc(Cn2c(=O)n(-c3cnn(C4CCOCC4)c3)c3cc(Cl)ccc32)c1` [Example 86, 3-((5-chloro-2-oxo-3-(1-(tetrahydro-2H-pyran-4-yl)-1H-pyrazol-4-yl)-2,3-dihydro-1H-benzo[d]imidazol-1-yl)methyl)benzoic acid], the negative logarithm of the IC50 (pIC50) is 6.00 to 7.00.

In the case of `CCCn1cc(-n2c(=O)n(Cc3cccc(C(=O)O)c3)c3ccc(Cl)c(F)c32)cn1` [Example 88, 3-((5-chloro-4-fluoro-2-oxo-3-(1-propyl-1H-pyrazol-4-yl)-2,3-dihydro-1H-benzo[d]imidazol-1-yl)methyl)benzoic acid], the negative-log IC50 (pIC50) was 7.00 to 8.00.

Take `CC(C)n1cc(-n2c(=O)n(Cc3cccc(C(=O)O)c3)c3ccc(Cl)cc32)cn1` [Example 89, 3-((5-chloro-3-(1-isopropyl-1H-pyrazol-4-yl)-2-oxo-2,3-dihydro-1H-benzo[d]imidazol-1-yl)methyl)benzoic acid]: the pIC50 is 6.00 to 7.00.

Regarding `O=C(O)c1cccc(Cn2c(=O)n(-c3cnn(CC4CC4)c3)c3cc(Cl)ccc32)c1` [Example 90, 3-((5-chloro-3-(1-cyclopropylmethyl-1H-pyrazol-4-yl)-2-oxo-2,3-dihydro-1H-benzo[d]imidazol-1-yl)methyl)benzoic acid], the pIC50 was 6.00 to 7.00.
